Here are results for 15 compounds from patent publication US8785478B2, “Viral polymerase inhibitors” (Biota Scientific Management Pty Ltd, priority 2012, dated 2014).

Data set [1] is described as follows: Aqueous solubility (laser nephelometry). Type of data set: physicochemical. The conditions noted are these: aqueous assay buffer with 1% DMSO, kinetic from dmso stock, 30 minute incubation at 25° C. The method, then:
Test compounds prepared in DMSO were screened in duplicate over a range of concentrations (1.6-100 ug/mL) in different aqueous media (for example a pH6.5 buffers which are relevant to the stomach and upper regions of the small intestine and therefore important when predicting the amount of drug likely to be in solution following oral administration). Test compounds were serially diluted in 100% DMSO ranging from 10-0.16 mg/mL. These titrated DMSO stocks were then further diluted 1:100 with assay buffer and added to test plates (UV Star Griener 384 well plates), maintaining the DMSO concentration at 1%.

For the next data set, the target named is T1, 1b (BK) NS5BΔ21 (Hepatitis C virus genotype 1b, UniProt P26663).
T1 construct: 100 nM, 1b (BK) NS5BΔ21
T1 sequence (P26663 2420-2989, stated change not applied): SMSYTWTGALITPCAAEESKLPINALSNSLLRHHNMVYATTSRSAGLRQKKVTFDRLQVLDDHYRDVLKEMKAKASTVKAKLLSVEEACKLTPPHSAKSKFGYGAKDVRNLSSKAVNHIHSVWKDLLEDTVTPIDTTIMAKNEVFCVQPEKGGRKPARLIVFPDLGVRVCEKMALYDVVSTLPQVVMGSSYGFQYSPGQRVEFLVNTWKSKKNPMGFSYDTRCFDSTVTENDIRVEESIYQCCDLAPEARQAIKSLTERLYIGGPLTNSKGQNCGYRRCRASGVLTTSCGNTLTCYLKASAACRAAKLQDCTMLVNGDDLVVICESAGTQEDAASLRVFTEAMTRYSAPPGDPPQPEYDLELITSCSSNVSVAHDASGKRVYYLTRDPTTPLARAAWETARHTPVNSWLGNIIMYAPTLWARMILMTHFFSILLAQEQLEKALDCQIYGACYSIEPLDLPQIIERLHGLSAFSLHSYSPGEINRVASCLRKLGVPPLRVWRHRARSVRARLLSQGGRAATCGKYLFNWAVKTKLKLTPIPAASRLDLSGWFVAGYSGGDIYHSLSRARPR
The data set can be described thus: HCV Polymerase Inhibition Assay. It counts as biochemical. The method, then: HCV polymerase reactions were carried out using a modified method of Howe et al., Antimicrobial Agents and Chemotherapy 2004 48(12): 4813-4821. Reactions contained a final concentration of, 0.5% DMSO, 100 nM, 1b (BK) NS5BΔ21, 20 mM Tris-HCl pH 7.5, 5 mM MgCl2, 5 mM MnCl2, 3 mM DTT, 0.05% BSA, 0.2 U/μL RNasin, 10 μg/mL Poly(rC) template, GTP (at Km) and 0.05 μCi/μL ^33P-GTP in a total reaction volume of 50 μL. Compounds were tested in a three fold dilution series, for example starting from 50 μM. Reactions were initiated with the addition of GTP and terminated after 90 min with 50 μL ice cold 0.2 M EDTA. Terminated reactions were transferred to DEAE 96-well filter plates, unincorporated nucleotides washed from the filters and 50 μL scintillation fluid added prior to reading on a scintillation counter. The compound concentration that reduced ^33P-GTP incorporation by 50% (IC50) was calculated using non-linear regression.

Data set [2] relates to genotype 1b (Con 1) subgenomic replicon cell line. The experiment in a line: HCV replicon assay, genotype 1b (Renilla luciferase). The conditions noted are these: Hepatitis C virus, genotype 1b replicon. It counts as cell-based. The method, then:
(§1) A genotype 1b (Con 1) subgenomic replicon cell line based on Blight et al., Science 2000 290: 1972-1974, modified to express a Renilla luciferase reporter gene was used to assess antiviral activity of test compounds. Cell cultures were maintained in a sub-confluent state in DMEM with glutamine, 10% heat-inactivated foetal bovine serum (FBS) and G418 (Geneticin®).
(§2) For assay, cells were seeded at a density of 7000 cells/well into 96 well tissue culture trays in culture media lacking G418. Compounds were tested in a three fold dilution series, for example starting from 50 uM. After 72 hours incubation at 37° C. and 5% CO2, Renilla luciferase activity was quantified via the Promega Renilla Luciferase or Renilla-Glo™ Luciferase Assay Systems (Promega corporation. The same method was employed for replicon assays using subgenomic genotype 1a (H77) and 2a (JFH-1) replicon cell lines with a seeding cell density of 5000 cells/well for the 2a cell lines.
(§3) The compound concentration that reduced luciferase activity by 50% (EC50) was calculated using non-linear regression.
In general terms: In antiviral work, replicon cells carry a viral genome segment that copies itself.

Data set [3] relates to subgenomic genotype 2a (JFH-1) replicon cell line. The data set can be described thus: HCV replicon assay, genotype 2a (Renilla luciferase). The note with it: Hepatitis C virus; genotype 2a replicon; read-out: G2a (EC50 μM). It counts as cell-based. The method, then:
as §1, §2, §3

The subject of data set [4] is subgenomic genotype 1a (H77) replicon cell line. The experiment in a line: HCV replicon assay, genotype 1a (Renilla luciferase). The conditions noted are these: Hepatitis C virus; genotype 1a replicon; read-out: G1a (EC50 μM). Type of data set: cell-based. The method, then: as §1, §2, §3
A short description of data set [5]: Cytotoxicity analysis (MTT). The note with it: genotype 1b replicon cells, three days, read-out: G1b (CC50 μM). It counts as cell-based. The method, then: Cytotoxicity of compounds against genotype 1b replicon cells was determined via metabolism of the vital dye 3-(4,5-dimethylthiaxol-2-yl)-2,5-diphenyltetrazolium bromide (MTT, for example see Watanabe et al., Journal of Virological Methods 1994 48:257-265). Plates were prepared as described for the HCV Replicon assay and cytotoxicity of the test article was evaluated after three days. MTT was added to assay plates followed by three hour incubation at 37° C. Wells were aspirated to dryness and the formazan dye dissolved by the addition of isopropanol. Absorbance values were read at 540/690 nm). The compound concentration that reduced cell viability by 50% (CC50) was calculated using non-linear regression.

Where [6] appears, read: aqueous buffer, pH 6.5, 1% DMSO, read-out: Solubility pH 6.5.
Setting [7] is: simulated gastric fluid, pH 2, 1% DMSO, read-out: Solubility pH 2.
Setting [8] is: 1b polymerase IC50 (μM) range, genotype 1b NS5B, 33P-GTP incorporation.
Setting [9] is: 72 hours, read-out: genotype 1b EC50 (μM) range.
The mark [10] stands for this setting: NS5B G1b (IC50 μM), genotype 1b polymerase.

≈ marks a conversion by molar mass, not a printed value. Like-named read-outs stand apart in the source and are kept apart here.

Turning to `CNC(=O)c1c2cc(C3CC3)c(N(CCO)S(C)(=O)=O)cc2nn1-c1ccc(C)cn1` [Compound 2, 5-cyclopropyl-6-[(2-hydroxyethyl)(methylsulfonyl)amino]-N-methyl-2-(5-methylpyridin-2-yl)-2H-indazole-3-carboxamide], the values for the solubility at 30 min in data set [1] (setting [6]) and in data set [1] (setting [7]) were > 100 µg/mL and 50 to 100 µg/mL (≈ 113 to 225 µM), respectively. In addition, the IC50 (usually the concentration needed to halve the response being measured) against 1b (BK) NS5BΔ21 (setting [8]) lay in the range of 1 to 10 µM. In addition, the EC50 – broadly, the concentration at which the effect is half-maximal – in data set [2] (setting [9]) was in the range of 0.1 to 0.49 µM.

For `CNC(=O)c1c2cc(C3CC3)c(N(CC(F)F)S(C)(=O)=O)cc2nn1-c1ccc(C)cn1` [Compound 3, 5-cyclopropyl-6-[(2,2-difluoroethyl)(methylsulfonyl)amino]-N-methyl-2-(5-methylpyridin-2-yl)-2H-indazole-3-carboxamide], the solubility at 30 min in data set [1] (setting [6]) and in data set [1] (setting [7]) was 50 to 100 µg/mL (≈ 108 to 216 µM) throughout. The compound also had an IC50 against 1b (BK) NS5BΔ21 (setting [8]) of 0.5 to 0.99 µM. Further, the EC50 in data set [2] (setting [9]) is < 0.1 µM.

Consider `CNC(=O)c1c2cc(C3CC3)c(N(CCC3COC3)S(C)(=O)=O)cc2nn1-c1ccc(C)cn1` [Compound 4, 5-cyclopropyl-N-methyl-2-(5-methylpyridin-2-yl)-6-{(methylsulfonyl)[2-(oxetan-3-yl)ethyl]amino}-2H-indazole-3-carboxamide], for which the EC50 in data set [3] is 0.293 µM; in data set [4], 0.035 µM; in data set [2] (setting [9]), < 0.1 µM; in data set [2] (read-out: G1b (EC50 μM)) it was 0.054 µM. The IC50 was 0.1 to 0.49 µM on 1b (BK) NS5BΔ21 (setting [8]) and 0.388 µM against 1b (BK) NS5BΔ21 (setting [10]). For the same compound, the CC50 (as a rule, the concentration at which the toxic effect on the cells reaches its halfway point) at 3 days in data set [5] is > 50 µM.

For the compound `CNC(=O)c1c2cc(C3CC3)c(N(C)S(C)(=O)=O)cc2nn1-c1ccc(C)cn1` [Compound 6, 5-cyclopropyl-N-methyl-6-[methyl(methylsulfonyl)amino]-2-(5-methylpyridin-2-yl)-2H-indazole-3-carboxamide], the EC50 in data set [3] was 0.024 µM; in data set [4], 0.044 µM; in data set [2] (setting [9]), < 0.1 µM; in data set [2] (read-out: G1b (EC50 μM)) it was 0.004 µM. Moreover, the IC50 on 1b (BK) NS5BΔ21 (setting [8]) was 0.1 to 0.49 µM; against 1b (BK) NS5BΔ21 (setting [10]) it was 0.31 µM. Also, in data set [5], the CC50 at 3 days is > 50 µM.

In turn, `CNC(=O)c1c2cc(C3CC3)c(N(CCF)S(C)(=O)=O)cc2nn1-c1ccc(C)cn1` [Compound 7, 5-cyclopropyl-6-[(2-fluoroethyl)(methylsulfonyl)amino]-N-methyl-2-(5-methylpyridin-2-yl)-2H-indazole-3-carboxamide] registered an IC50 against 1b (BK) NS5BΔ21 (setting [8]) of 0.5 to 0.99 µM. Moreover, in data set [2] (setting [9]), the EC50 was < 0.1 µM.

For `CCN(c1cc2nn(-c3ccc(Cl)cn3)c(C(=O)NC)c2cc1C1CC1)S(C)(=O)=O` [Compound 8, 2-(5-chloropyridin-2-yl)-5-cyclopropyl-6-[ethyl(methylsulfonyl)amino]-N-methyl-2H-indazole-3-carboxamide], the EC50 was 0.04 µM in data set [3], 0.016 µM in data set [4], < 0.1 µM in data set [2] (setting [9]) and 0.009 µM in data set [2] (read-out: G1b (EC50 μM)). Further, the results for the IC50 against 1b (BK) NS5BΔ21 (setting [8]) and at 1b (BK) NS5BΔ21 (setting [10]) were < 0.1 µM and 0.091 µM, respectively. In data set [5], the CC50 at 3 days is > 50 µM.

Turning to `CNC(=O)c1c2cc(C3CC3)c(N(C)S(C)(=O)=O)cc2nn1-c1ccc(Cl)cn1` [Compound 9, 2-(5-chloropyridin-2-yl)-5-cyclopropyl-N-methyl-6-[methyl(methylsulfonyl)amino]-2H-indazole-3-carboxamide], the EC50 in data set [3] is 0.055 µM; in data set [4], 0.031 µM; in data set [2] (setting [9]), < 0.1 µM; in data set [2] (read-out: G1b (EC50 μM)) it was 0.008 µM. The 50% inhibitory concentration (IC50) is < 0.1 µM against 1b (BK) NS5BΔ21 (setting [8]) and 0.054 µM against 1b (BK) NS5BΔ21 (setting [10]). The CC50 at 3 days in data set [5] is > 50 µM.

Take `CNC(=O)c1c2cc(C3CC3)c(N(CCC3COC3C)S(C)(=O)=O)cc2nn1-c1ccc(C)cn1` (stereo not drawn) [Compound 10, 5-cyclopropyl-N-methyl-6-{[2-(2-methyloxetan-3-yl)ethyl](methylsulfonyl)amino}-2-(5-methylpyridin-2-yl)-2H-indazole-3-carboxamide]: the IC50 against 1b (BK) NS5BΔ21 (setting [8]) fell in the range of 0.5 to 0.99 µM. Also, the EC50 in data set [2] (setting [9]) is < 0.1 µM.

With `CNC(=O)c1c2cc(C3CC3)c(N(C)S(C)(=O)=O)cc2nn1-c1ncc(C)s1` [Compound 13, 5-cyclopropyl-N-methyl-6-[methyl(methylsulfonyl)amino]-2-(5-methylthiazol-2-yl)indazole-3-carboxamide], the EC50 in data set [2] (setting [9]) lay in the range of 0.1 to 0.49 µM.

`CNC(=O)c1c2cc(C3CC3)c(N(C)S(C)(=O)=O)cc2nn1-c1ccccn1` [Compound 14, 5-cyclopropyl-N-methyl-6-[methyl(methylsulfonyl)amino]-2-(2-pyridyl)indazole-3-carboxamide]: the EC50 in data set [2] (setting [9]) was in the range of 0.1 to 0.49 µM.

`CNC(=O)c1c2cc(C3CC3)c(N(C)S(C)(=O)=O)cc2nn1-c1cc(C)c(Cl)cn1` [Compound 15, 2-(5-chloro-4-methyl-2-pyridyl)-5-cyclopropyl-N-methyl-6-[methyl(methylsulfonyl)amino]indazole-3-carboxamide]: the EC50 in data set [2] (setting [9]) fell in the range of 0.1 to 0.49 µM.

Turning to `CNC(=O)c1c2cc(C3CC3)c(N(CCC3CN(C(=O)OC(C)(C)C)C3)S(C)(=O)=O)cc2nn1-c1ccc(C)cn1` [Compound 16, tert-butyl 3-[2-[[5-cyclopropyl-3-(methylcarbamoyl)-2-(5-methyl-2-pyridyl)indazol-6-yl]-methylsulfonyl-amino]ethyl]azetidine-1-carboxylate], the IC50 against 1b (BK) NS5BΔ21 (setting [8]) was in the range of 1 to 10 µM. Further, in data set [2] (setting [9]), the EC50 is < 0.1 µM.

For `CNC(=O)c1c2cc(C3CC3)c(N(CCC3CN(C(C)=O)C3)S(C)(=O)=O)cc2nn1-c1ccc(C)cn1` [Compound 17, 6-[2-(1-acetylazetidin-3-yl)ethyl-methylsulfonyl-amino]-5-cyclopropyl-N-methyl-2-(5-methyl-2-pyridyl)indazole-3-carboxamide], the results for the solubility at 30 min in data set [1] (setting [6]) and in data set [1] (setting [7]) were > 100 µg/mL and 50 to 100 µg/mL (≈ 95.3 to 191 µM), respectively. This compound also yielded an IC50 on 1b (BK) NS5BΔ21 (setting [8]) of 0.5 to 0.99 µM. The EC50 in data set [2] (setting [9]) was in the range of 0.1 to 0.49 µM.

In the case of `CNC(=O)c1c2cc(C3CC3)c(N(CCC3(OC)COC3)S(C)(=O)=O)cc2nn1-c1ccc(C)cn1` [Compound 18, 5-cyclopropyl-6-[2-(3-methoxyoxetan-3-yl)ethyl-methylsulfonyl-amino]-N-methyl-2-(5-methyl-2-pyridyl)indazole-3-carboxamide], the EC50 in data set [3] is 0.305 µM; in data set [4] it was 0.031 µM; in data set [2] (setting [9]) it was < 0.1 µM; in data set [2] (read-out: G1b (EC50 μM)) it was 0.056 µM. Also, the values for the IC50 at 1b (BK) NS5BΔ21 (setting [8]) and at 1b (BK) NS5BΔ21 (setting [10]) were 0.1 to 0.49 µM and 0.188 µM, respectively. For the same compound, the CC50 at 3 days in data set [5] was > 50 µM.

`CNC(=O)c1c2cc(C3CC3)c(N(CCC3COC3)S(C)(=O)=O)cc2nn1-c1ccc(Cl)cn1` [Compound 19, 2-(5-chloro-2-pyridyl)-5-cyclopropyl-N-methyl-6-[methylsulfonyl-[2-(oxetan-3-yl)ethyl]amino]indazole-3-carboxamide]: the EC50 in data set [3] is 0.019 µM; in data set [4], 0.011 µM; in data set [2] (setting [9]), < 0.1 µM; in data set [2] (read-out: G1b (EC50 μM)), 0.021 µM. Moreover, the IC50 against 1b (BK) NS5BΔ21 (setting [8]) is 0.1 to 0.49 µM; on 1b (BK) NS5BΔ21 (setting [10]), 0.131 µM. For the same compound, the CC50 at 3 days in data set [5] was > 50 µM.
